pIC50: −log10 of the molar value.
Tests used:
[1] = target: T1, CYP1A1 (Homo sapiens, UniProt P04798); assay: Inhibition of recombinant human CYP1A1 at 3 uM incubated for 25 mins using 7-ethyl-O-resorufin substrate in presence of NADPH regenerating system by fluorescence based ethoxyresorufin-O-deethylase assay; type: ADME; details: recombinant human CYP1A1, probe 7-ethyl-O-resorufin (7-ethoxyresorufin)
T1 sequence (P04798 whole entry): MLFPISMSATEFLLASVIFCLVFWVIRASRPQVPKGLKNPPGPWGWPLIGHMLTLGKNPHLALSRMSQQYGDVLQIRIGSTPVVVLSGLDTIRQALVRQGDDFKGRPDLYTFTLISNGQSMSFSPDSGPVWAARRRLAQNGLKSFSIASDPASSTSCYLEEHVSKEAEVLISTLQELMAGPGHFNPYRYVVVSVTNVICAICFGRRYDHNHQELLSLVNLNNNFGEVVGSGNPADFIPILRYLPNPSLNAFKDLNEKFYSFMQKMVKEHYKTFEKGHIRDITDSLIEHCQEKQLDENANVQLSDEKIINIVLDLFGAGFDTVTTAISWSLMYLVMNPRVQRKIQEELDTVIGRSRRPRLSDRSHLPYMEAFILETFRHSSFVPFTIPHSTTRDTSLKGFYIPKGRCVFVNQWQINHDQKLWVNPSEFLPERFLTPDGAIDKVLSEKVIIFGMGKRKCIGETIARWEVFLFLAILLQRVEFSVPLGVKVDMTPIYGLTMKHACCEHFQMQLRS

[2] = target: T2, CYP1B1 (Homo sapiens, UniProt Q16678); assay: Inhibition of recombinant human CYP1B1 at 3 uM incubated for 45 mins using 7-ethyl-O-resorufin substrate in presence of NADPH regenerating system by fluorescence based ethoxyresorufin-O-deethylase assay; details: recombinant human CYP1B1, probe 7-ethyl-O-resorufin (7-ethoxyresorufin)
T2 sequence (Q16678 whole entry): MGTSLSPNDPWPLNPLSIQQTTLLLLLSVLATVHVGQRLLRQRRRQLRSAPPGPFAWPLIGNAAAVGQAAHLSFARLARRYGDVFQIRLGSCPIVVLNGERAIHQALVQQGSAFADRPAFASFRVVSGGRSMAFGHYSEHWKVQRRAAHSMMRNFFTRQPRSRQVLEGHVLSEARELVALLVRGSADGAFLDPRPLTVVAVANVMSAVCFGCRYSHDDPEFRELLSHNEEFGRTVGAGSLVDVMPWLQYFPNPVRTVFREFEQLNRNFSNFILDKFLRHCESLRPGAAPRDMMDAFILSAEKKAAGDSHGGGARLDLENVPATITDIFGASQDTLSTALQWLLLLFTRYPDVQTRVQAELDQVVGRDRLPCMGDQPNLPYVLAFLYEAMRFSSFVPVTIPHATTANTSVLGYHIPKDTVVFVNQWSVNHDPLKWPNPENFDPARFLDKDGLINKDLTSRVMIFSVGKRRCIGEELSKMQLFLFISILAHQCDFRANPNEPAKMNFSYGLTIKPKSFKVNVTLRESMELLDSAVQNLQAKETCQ

[3] = target: T2, CYP1B1; assay: Inhibition of recombinant human CYP1B1 at 0.3 uM incubated for 45 mins using 7-ethyl-O-resorufin substrate in presence of NADPH regenerating system by fluorescence based ethoxyresorufin-O-deethylase assay; details: recombinant human CYP1B1, probe 7-ethyl-O-resorufin (7-ethoxyresorufin)
[4] = target: T1, CYP1A1; assay: Inhibition of recombinant human CYP1A1 at 0.3 uM incubated for 25 mins using 7-ethyl-O-resorufin substrate in presence of NADPH regenerating system by fluorescence based ethoxyresorufin-O-deethylase assay; type: ADME; details: recombinant human CYP1A1, probe 7-ethyl-O-resorufin (7-ethoxyresorufin)
[5] = target: T3, Cytochrome P450 1B1 (Homo sapiens, UniProt Q16678); assay: Inhibition of recombinant human CYP1B1 incubated for 45 mins using 7-ethyl-O-resorufin substrate in presence of NADPH regenerating system by fluorescence based ethoxyresorufin-O-deethylase assay
T3 sequence (Q16678 whole entry): T2 sequence (Q16678 whole entry)

[6] = organism: Homo sapiens; assay: Selectivity index, ratio of IC50 for inhibition of recombinant human CYP1A1 to IC50 for inhibition of recombinant human CYP1B1
[7] = target: T4, Cytochrome P450 1A1 (Homo sapiens, UniProt P04798); assay: Inhibition of recombinant human CYP1A1 incubated for 25 mins using 7-ethyl-O-resorufin substrate in presence of NADPH regenerating system by fluorescence based ethoxyresorufin-O-deethylase assay; type: ADME
T4 sequence (P04798 whole entry): T1 sequence (P04798 whole entry)

inhibition at 25 min, 3 µM [1] | inhibition at 0.75 h, 3 µM [2] | inhibition at 0.75 h, 0.3 µM [3] | inhibition at 25 min, 0.3 µM [4] | Compound | pIC50 [5] | Ratio IC50 [6] | pIC50 [7]
– | 5% | 0% | – | C[C@]12CC[C@@H]3c4ccc(S(C)(=O)=O)cc4CC[C@H]3[C@@H]1CC[C@@H]2O | – | – | –
– | 34% | 14% | – | CSc1ccc2c(c1)CC[C@@H]1[C@@H]2CC[C@]2(C)C(=O)CC[C@@H]12 | – | – | –
15% | 100% | 77% | 1% | C[C@]12CC[C@@H]3c4cc(-c5ccc(F)c(F)c5)c(O)cc4CC[C@H]3[C@@H]1CCC2=O | – | – | –
18% | 103% | 95% | 8% | COc1ccc(-c2cc3c(cc2O)CC[C@@H]2[C@@H]3CC[C@]3(C)C(=O)CC[C@@H]23)cc1 | – | – | –
48% | 101% | 88% | 12% | C[C@]12CC[C@@H]3c4cc(-c5cccc(F)c5)c(O)cc4CC[C@H]3[C@@H]1CC[C@@H]2O | – | – | –
11% | 100% | 74% | 5% | C[C@]12CC[C@@H]3c4cc(-c5cccc(Cl)c5)c(O)cc4CC[C@H]3[C@@H]1CCC2=O | – | – | –
4% | 79% | 38% | 1% | COc1ccc(-c2cc3c(cc2OC)CC[C@@H]2[C@@H]3CC[C@]3(C)C(=O)CC[C@@H]23)cc1 | – | – | –
– | 81% | 48% | – | COc1cccc(-c2cc3c(cc2O)CC[C@@H]2[C@@H]3CC[C@]3(C)C(=O)CC[C@@H]23)c1 | – | – | –
51% | 100% | 91% | 16% | C[C@]12CC[C@@H]3c4cc(-c5cccc(Cl)c5)c(O)cc4CC[C@H]3[C@@H]1CC[C@@H]2O | – | – | –
9% | 55% | 6% | 4% | C#C[C@]1(O)CC[C@H]2[C@@H]3CCc4cc(OC)c(-c5ccc(OC)cc5)cc4[C@H]3CC[C@@]21C | – | – | –
– | 90% | – | – | C[C@]12CC[C@@H]3c4cc(-c5cccnc5)c(O)cc4CC[C@H]3[C@@H]1CCC2=O | – | – | –
6% | 46% | 8% | 2% | COc1ccc(-c2cc3c(cc2OC)CC[C@@H]2[C@@H]3CC[C@@]3(C)[C@H]2CC[C@]3(C)O)cc1 | – | – | –
57% | 100% | 96% | 10% | C[C@]12CC[C@@H]3c4cc(-c5cccc(O)c5)c(O)cc4CC[C@H]3[C@@H]1CC[C@@H]2O | – | – | –
– | 25% | 10% | – | C[S+]([O-])c1ccc2c(c1)CC[C@@H]1[C@@H]2CC[C@]2(C)[C@@H](O)CC[C@@H]12 (stereo partly drawn) | – | – | –
45% | 101% | 82% | 9% | C[C@]12CC[C@@H]3c4cc(-c5ccccc5)c(O)cc4CC[C@H]3[C@@H]1CC[C@@H]2O | – | – | –
– | 55% | 36% | – | C[C@]12CC[C@@H]3c4cc(-c5cccc(N)c5)c(O)cc4CC[C@H]3[C@@H]1CCC2=O | – | – | –

inhibition at 25 min, 3 µM [1] | inhibition at 0.75 h, 3 µM [2] | inhibition at 0.75 h, 0.3 µM [3] | inhibition at 25 min, 0.3 µM [4] | Compound | pIC50 [5] | Ratio IC50 [6] | pIC50 [7]
63% | 99% | 96% | 12% | C[C@]12CC[C@@H]3c4cc(-c5ccc(Cl)cc5)c(O)cc4CC[C@H]3[C@@H]1CC[C@@H]2O | – | – | –
– | 55% | – | – | C[C@]12CC[C@@H]3c4cc(-c5ccncc5)c(O)cc4CC[C@H]3[C@@H]1CCC2=O | – | – | –
51% | 100% | 97% | 14% | COc1ccc(-c2cc3c(cc2O)CC[C@@H]2[C@@H]3CC[C@]3(C)[C@@H](O)CC[C@@H]23)cc1 | – | – | –
– | 30% | 19% | – | C[C@]12CC[C@@H]3c4cc(-c5ccc(O)cc5)c(O)cc4CC[C@H]3[C@@H]1CCC2=O | – | – | –
39% | 103% | 92% | 10% | C[C@]12CC[C@@H]3c4cc(-c5cccc(O)c5)c(O)cc4CC[C@H]3[C@@H]1CCC2=O | – | – | –
75% | 101% | – | 30% | O=c1cc(-c2ccccc2)oc2c1ccc1ccccc12 [ALPHA-NAPHTHOFLAVONE] | – | – | 5.57
– | 26% | 5% | – | CSc1ccc2c(c1)CC[C@@H]1[C@@H]2CC[C@]2(C)[C@@H](O)CC[C@@H]12 | – | – | –
77% | 100% | – | 53% | C[C@]12CC[C@@H]3c4cc(-c5cccnc5)c(O)cc4CC[C@H]3[C@@H]1CC[C@@H]2O | – | – | –
47% | 100% | 92% | 2% | C[C@]12CC[C@@H]3c4cc(-c5ccc(F)c(F)c5)c(O)cc4CC[C@H]3[C@@H]1CC[C@@H]2O | – | – | –
– | 7% | 7% | – | C[C@]12CC[C@@H]3c4ccc(S(C)(=O)=O)cc4CC[C@H]3[C@@H]1CCC2=O | – | – | –
23% | 101% | 67% | 3% | C[C@]12CC[C@@H]3c4cc(-c5cccc(F)c5)c(O)cc4CC[C@H]3[C@@H]1CCC2=O | – | – | –
5% | 20% | 11% | 1% | COc1ccc(-c2cc3c(cc2OC)CC[C@@H]2[C@@H]3CC[C@]3(C)[C@@H](OC)CC[C@@H]23)cc1 | – | – | –
8% | 101% | 71% | 2% | C[C@]12CC[C@@H]3c4cc(-c5ccc(F)cc5)c(O)cc4CC[C@H]3[C@@H]1CCC2=O | – | – | –
36% | 87% | 48% | 9% | C[C@]12CC[C@@H]3c4ccc(SCc5cccnc5)cc4CC[C@H]3[C@@H]1CCC2=O | – | – | –
– | 57% | 16% | – | C[S+]([O-])c1ccc2c(c1)CC[C@@H]1[C@@H]2CC[C@]2(C)C(=O)CC[C@@H]12 (stereo partly drawn) | – | – | –

Compound | inhibition at 25 min, 3 µM [1] | inhibition at 0.75 h, 3 µM [2] | inhibition at 0.75 h, 0.3 µM [3] | inhibition at 25 min, 0.3 µM [4] | pIC50 [5] | Ratio IC50 [6] | pIC50 [7]
C[C@]12CC[C@@H]3c4cc(-c5ccccc5)c(O)cc4CC[C@H]3[C@@H]1CCC2=O | 16% | 101% | 69% | 5% | – | – | –
C[C@]12CC[C@@H]3c4cc(-c5ccncc5)c(O)cc4CC[C@H]3[C@@H]1CC[C@@H]2O | 14% | 102% | – | 5% | 6.62 | 16 | 5.41
C[C@]12CC[C@@H]3c4cc(-c5ccc(Cl)cc5)c(O)cc4CC[C@H]3[C@@H]1CCC2=O | 5% | 101% | 79% | 9% | – | – | –

From ChEMBL document CHEMBL4196212, “Targeting Cytochrome P450 (CYP) 1B1 Enzyme with Four Series of A-Ring Substituted Estrane Derivatives: Design, Synthesis, Inhibitory Activity, and Selectivity” (J Med Chem, 2018)
